According to patent publication US20090068642A1, “Composition and pharmacology of novel alpha6-containing nicotinic acetylcholine receptors” (priority 2003, published 2009):
Several values for one entry are separate records, joined by “and”; a condition that tells them apart may be missing. Identical values can stand only once. Entries after “also recorded” stand apart in the source; their conditions may differ. Like-named read-outs stand apart in the source and are kept apart here.

Assays:
α4β2 nAChR [1] = target: T1, α4β2 nAChR (Rattus norvegicus, UniProt P09483+P12390); test: biochemical; format: binding
T1 construct: Rat Brain; from tissue
T1 sequence (P12390 25-500): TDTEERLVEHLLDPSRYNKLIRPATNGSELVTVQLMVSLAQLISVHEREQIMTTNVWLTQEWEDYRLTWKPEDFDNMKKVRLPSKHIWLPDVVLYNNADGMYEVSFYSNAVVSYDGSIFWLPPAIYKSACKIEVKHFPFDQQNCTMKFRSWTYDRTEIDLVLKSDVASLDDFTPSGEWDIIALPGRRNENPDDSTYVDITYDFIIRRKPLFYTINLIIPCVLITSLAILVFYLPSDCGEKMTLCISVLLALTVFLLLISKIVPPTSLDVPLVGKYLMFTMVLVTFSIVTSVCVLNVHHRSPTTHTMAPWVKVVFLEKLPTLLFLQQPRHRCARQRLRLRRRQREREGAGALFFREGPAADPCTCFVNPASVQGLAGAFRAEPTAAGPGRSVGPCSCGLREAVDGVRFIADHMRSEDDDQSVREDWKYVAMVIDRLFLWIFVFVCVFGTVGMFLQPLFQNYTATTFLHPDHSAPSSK
T1 sequence (P09483 31-630): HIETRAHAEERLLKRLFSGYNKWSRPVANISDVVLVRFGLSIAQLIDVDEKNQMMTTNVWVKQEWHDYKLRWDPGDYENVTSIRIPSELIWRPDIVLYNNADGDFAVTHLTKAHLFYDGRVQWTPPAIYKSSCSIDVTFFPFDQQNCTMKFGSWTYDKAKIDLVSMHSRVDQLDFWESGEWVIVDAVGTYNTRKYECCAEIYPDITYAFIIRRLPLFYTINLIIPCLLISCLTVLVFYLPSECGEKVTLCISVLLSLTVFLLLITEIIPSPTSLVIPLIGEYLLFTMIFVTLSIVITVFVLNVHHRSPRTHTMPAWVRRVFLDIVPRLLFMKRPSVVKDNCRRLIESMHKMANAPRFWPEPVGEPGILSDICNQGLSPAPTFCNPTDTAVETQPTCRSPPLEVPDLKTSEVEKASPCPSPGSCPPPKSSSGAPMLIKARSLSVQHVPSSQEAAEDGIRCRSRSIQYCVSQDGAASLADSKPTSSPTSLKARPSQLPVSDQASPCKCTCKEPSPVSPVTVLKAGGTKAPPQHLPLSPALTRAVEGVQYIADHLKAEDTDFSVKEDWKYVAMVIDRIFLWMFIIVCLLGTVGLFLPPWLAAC

α7 nAChR [2] = target: T2, α7 nAChR (Rattus norvegicus, UniProt Q05941); test: biochemical; conditions: read-out: Ki α7 [3H]-MLA Binding
T2 construct: Rat brain; from tissue
T2 sequence (Q05941 23-502): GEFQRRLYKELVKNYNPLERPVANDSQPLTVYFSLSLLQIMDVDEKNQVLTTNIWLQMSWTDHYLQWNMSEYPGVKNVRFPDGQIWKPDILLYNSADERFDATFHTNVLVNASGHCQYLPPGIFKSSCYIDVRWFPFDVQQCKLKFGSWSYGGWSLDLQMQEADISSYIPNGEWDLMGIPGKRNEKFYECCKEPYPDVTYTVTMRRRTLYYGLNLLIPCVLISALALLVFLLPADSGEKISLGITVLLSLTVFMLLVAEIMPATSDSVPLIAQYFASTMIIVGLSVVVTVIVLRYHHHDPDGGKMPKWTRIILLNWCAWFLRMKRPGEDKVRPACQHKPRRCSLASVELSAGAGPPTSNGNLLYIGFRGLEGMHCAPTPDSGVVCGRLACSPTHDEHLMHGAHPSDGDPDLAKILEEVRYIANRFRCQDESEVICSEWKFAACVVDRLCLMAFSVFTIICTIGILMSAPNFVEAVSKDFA

α6β3β4α5 nAChR [3] = target: T3, α6β3β4α5 nAChR (Homo sapiens, UniProt P30926+Q15825); test: [3H]-epibatidine binding to SH-EP1 α6β3β4α5 cell membranes (saturation and competition)
T3 construct: expressed in transfected cells; host or cells: SH-EP1 human epithelial cells
T3 sequence (Q15825 26-494): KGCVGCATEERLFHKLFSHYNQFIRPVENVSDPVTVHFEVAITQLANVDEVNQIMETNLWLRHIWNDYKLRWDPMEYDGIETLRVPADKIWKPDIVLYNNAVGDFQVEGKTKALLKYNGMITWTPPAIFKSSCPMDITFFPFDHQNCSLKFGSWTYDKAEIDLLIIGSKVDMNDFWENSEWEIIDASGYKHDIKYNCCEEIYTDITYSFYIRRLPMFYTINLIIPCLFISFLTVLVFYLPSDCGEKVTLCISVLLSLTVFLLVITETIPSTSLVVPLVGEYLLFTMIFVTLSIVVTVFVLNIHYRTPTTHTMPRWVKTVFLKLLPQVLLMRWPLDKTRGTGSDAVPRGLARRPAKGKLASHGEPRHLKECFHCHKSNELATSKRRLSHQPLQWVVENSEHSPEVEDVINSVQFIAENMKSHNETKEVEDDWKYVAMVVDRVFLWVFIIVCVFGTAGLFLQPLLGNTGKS
T3 sequence (Q05901 25-458 partner limits assumed): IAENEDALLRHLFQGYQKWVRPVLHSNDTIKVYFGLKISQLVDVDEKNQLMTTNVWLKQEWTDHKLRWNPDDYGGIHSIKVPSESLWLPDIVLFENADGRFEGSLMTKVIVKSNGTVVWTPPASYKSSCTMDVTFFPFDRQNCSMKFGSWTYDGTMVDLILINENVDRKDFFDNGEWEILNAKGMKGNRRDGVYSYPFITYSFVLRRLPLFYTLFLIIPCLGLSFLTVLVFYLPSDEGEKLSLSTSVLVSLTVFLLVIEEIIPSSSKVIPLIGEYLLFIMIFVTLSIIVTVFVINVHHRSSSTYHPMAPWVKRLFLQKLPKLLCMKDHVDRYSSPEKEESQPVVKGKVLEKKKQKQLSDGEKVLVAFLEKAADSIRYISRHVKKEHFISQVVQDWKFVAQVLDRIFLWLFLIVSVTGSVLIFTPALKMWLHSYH
T3 sequence (P30926 22-498): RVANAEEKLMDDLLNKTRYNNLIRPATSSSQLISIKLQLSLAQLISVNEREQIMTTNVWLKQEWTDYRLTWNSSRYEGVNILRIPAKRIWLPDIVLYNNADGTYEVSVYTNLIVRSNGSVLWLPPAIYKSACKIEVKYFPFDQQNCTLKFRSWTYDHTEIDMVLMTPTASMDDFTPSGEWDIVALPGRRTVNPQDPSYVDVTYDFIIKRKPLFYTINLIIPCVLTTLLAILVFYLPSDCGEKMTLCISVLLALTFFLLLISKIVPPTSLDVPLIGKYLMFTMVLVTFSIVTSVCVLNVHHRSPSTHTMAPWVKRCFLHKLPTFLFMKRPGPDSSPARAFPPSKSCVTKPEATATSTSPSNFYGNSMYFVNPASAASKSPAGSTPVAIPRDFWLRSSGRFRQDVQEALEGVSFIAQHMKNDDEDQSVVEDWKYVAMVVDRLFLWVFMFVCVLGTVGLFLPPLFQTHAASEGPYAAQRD
T3 sequence (P30532 23-468 partner): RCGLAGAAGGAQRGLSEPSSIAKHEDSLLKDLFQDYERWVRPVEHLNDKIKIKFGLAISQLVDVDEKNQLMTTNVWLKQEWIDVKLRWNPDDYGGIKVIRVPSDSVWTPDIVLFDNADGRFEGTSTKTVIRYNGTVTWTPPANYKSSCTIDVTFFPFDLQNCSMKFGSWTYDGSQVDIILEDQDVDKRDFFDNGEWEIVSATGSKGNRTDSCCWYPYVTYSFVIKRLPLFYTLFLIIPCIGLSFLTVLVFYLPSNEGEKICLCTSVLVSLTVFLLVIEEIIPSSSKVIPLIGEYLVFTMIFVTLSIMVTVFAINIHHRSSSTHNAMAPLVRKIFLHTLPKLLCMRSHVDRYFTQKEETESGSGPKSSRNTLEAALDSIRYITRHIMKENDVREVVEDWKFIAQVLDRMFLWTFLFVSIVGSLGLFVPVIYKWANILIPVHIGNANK
Procedure: Preparation of Cell Membranes for Receptor Binding. […] Combined homogenate (18 mL) was centrifuged at 40,000×g for 20 min (4° C.). The pellet was resuspended in 12 mL of ice-cold PBS and centrifuged again. The final pellet was resuspended in 10 mL of PBS.
[^3H]-Epibatidine Binding. For the saturation binding assay, 0.1 to 2.0 nM [^3H]-EPI (final concentrations; PerkinElmer Life Sciences, 56.2 Ci/mmol) was used to probe α6-comprising binding sites on the cell membranes. Competition binding assay was performed using 0.5 nM [^3H]-EPI (final concentration).
Each well contained 50 μL of test compound at the desired concentration, 50 μL of 4×[^3H]-EPI stock solution and 100 μL of membrane suspension and was performed in triplicate, at minimum. Samples were incubated for 2 hr at room temperature with gentle agitation. Samples defining total binding included buffer instead of test compound.
For 48-well plates, binding was terminated by immediate filtration onto GF/B filters (presoaked in 0.3% PEI) using a 48-sample, semi-auto harvester (Brandel, Gaithersburg, Md.), followed by washing 3 times with ice-cold buffer. Filters were transferred into scintillation vials filled with 3 mL of cocktail. Radioactivity was measured after 8-12 hr using a liquid scintillation analyzer (model Tri-Carb 2200CA, PerkinElmer Life Sciences Inc., Boston, Mass.). Data were expressed as disintegrations per minute (DPMs) and were converted to an absolute amount (fmoles) of bound [^3H]-EPI per mg of protein, or as a percent of control [^3H]-EPI binding (total—nonspecific).
For 96-well plates, incubation was terminated by dilution with ice-cold PBS and immediate filtration onto GF/B filter plate (presoaked in 0.3% PEI) using a 96-sample, semi-auto harvester (Brandel, Gaithersburg, Md.). After washing 3 times with ˜350 μl of ice-cold buffer, the filter plate was dried for 60 min in an oven at 49° C., bottom-sealed and each well filled with 40 μl of cocktail. […] Data were expressed as counts per minute (CPMs) and were converted to percent of control [^3H]-EPI binding (total—nonspecific).
Pseudo Hill slope (nH) was determined by fitting data to a sigmoidal dose-response equation (variable slope): % binding=Bottom+(Top−Bottom)/[1+10^(logIC50-X)·n], where X is the logarithm of inhibitor concentration and n is the slope.
A Scatchard analysis was also done for illustrative purposes, but not to determine specific binding parameters.

α6α4β2β3 nAChR [4] = target: α6α4β2β3 nAChR (Homo sapiens, UniProt P17787+P43681+Q15825, P452S); test: 86Rb+ efflux assay, SH-EP1 α6α4β2β3 cells compared with α4β2 cells; format: cell-based
α6α4β2β3 nAChR (Homo sapiens, UniProt P17787+P43681+Q15825, P452S), sequence (P43681 27-627 P452S): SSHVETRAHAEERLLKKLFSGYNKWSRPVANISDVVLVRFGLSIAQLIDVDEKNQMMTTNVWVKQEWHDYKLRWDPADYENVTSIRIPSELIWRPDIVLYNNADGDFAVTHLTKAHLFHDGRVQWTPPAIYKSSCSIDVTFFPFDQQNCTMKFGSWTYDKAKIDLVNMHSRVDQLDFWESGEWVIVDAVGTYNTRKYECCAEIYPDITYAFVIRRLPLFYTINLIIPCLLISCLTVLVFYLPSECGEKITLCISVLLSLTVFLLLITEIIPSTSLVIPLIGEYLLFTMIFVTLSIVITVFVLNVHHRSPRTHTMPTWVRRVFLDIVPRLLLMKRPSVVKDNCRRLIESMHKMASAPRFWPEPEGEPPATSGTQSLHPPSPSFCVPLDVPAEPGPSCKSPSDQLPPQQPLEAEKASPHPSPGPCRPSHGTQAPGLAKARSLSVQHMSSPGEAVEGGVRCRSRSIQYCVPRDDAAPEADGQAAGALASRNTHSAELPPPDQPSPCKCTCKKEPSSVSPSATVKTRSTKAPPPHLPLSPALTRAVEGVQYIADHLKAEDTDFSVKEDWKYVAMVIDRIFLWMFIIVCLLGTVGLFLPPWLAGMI
α6α4β2β3 nAChR (Homo sapiens, UniProt P17787+P43681+Q15825, P452S), sequence (Q15825 26-494): as the sequence (Q15825 26-494) above
α6α4β2β3 nAChR (Homo sapiens, UniProt P17787+P43681+Q15825, P452S), sequence (P17787 26-502): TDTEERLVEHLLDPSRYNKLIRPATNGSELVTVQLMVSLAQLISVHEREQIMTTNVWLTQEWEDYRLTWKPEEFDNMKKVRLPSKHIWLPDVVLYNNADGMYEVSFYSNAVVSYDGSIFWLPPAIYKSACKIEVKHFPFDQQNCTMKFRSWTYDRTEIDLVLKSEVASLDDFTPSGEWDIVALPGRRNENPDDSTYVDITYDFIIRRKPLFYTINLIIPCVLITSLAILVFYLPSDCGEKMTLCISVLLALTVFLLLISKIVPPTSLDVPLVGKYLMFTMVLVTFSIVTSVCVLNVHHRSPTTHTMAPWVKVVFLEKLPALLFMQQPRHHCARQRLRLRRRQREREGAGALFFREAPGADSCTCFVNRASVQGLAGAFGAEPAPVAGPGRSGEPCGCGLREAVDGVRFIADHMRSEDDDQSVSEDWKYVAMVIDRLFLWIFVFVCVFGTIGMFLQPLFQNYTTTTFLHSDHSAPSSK
α6α4β2β3 nAChR (Homo sapiens, UniProt P17787+P43681+Q15825, P452S), sequence (Q05901 22-458, further chain): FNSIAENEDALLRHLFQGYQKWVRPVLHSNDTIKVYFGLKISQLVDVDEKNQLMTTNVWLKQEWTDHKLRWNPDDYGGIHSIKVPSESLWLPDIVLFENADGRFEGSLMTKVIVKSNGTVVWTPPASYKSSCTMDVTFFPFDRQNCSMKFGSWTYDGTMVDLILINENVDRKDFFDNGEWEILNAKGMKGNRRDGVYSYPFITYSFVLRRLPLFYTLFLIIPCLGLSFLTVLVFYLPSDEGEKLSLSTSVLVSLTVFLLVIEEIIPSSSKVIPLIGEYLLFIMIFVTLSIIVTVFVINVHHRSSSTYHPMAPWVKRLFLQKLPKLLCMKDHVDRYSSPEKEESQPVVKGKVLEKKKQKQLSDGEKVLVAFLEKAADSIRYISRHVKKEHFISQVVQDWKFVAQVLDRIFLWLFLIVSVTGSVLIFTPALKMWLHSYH
Procedure: (§1) ^86Rb^+-flux Assay. […] After cells had adhered (generally overnight, but no sooner than 4 hr later), medium was removed and replaced with 250 μl per well of complete medium supplemented with ˜300,000 cpm of ^86Rb^+ (NEN; counted at 40% efficiency using Cerenkov counting and the Packard TriCarb 1900 Liquid Scintillation Analyzer).
(§2) Briefly, after aspiration of the bulk of ^86Rb^+ loading medium from each well of the “cell plate,” each well containing cells was rinsed three times with 2 ml of fresh ^86 Rb^+ efflux buffer (130 mM NaCl, 5.4 mM KCl, 2 mM CaCl2, 5 mM glucose, 50 mM HEPES, pH 7.4) to remove extracellular ^86Rb^+. Following removal of residual rinse buffer by aspiration, the flip-plate technique was used again to simultaneously introduce fresh efflux buffer containing drugs of choice at indicated final concentrations from a 24-well “efflux/drug plate” into the wells of the cell plate. […]
(§3) Intrinsic agonist activity of test drugs was ascertained in samples containing that drug only at different concentrations and was normalized, after subtraction of non-specific efflux, to specific efflux assessed using carbamylcholine and efflux-buffer-only controls. Antagonist activity was determined for test drugs at different concentrations in the presence of 1 mM carbamylcholine and was normalized, after subtraction of non-specific efflux, to specific efflux ascertained using carbamylcholine and efflux buffer-only controls. ^86Rb^+ in both cell plates and efflux/drug plates was periodically determined to ensure material balance (i.e., that the sum of ^86Rb^+ released into the efflux/drug plate and ^86Rb^+ remaining in the cell plate were the same for each well) and to determine efficiency of ^86Rb^+ loading (the percentage of applied ^86Rb^+ actually loaded into cells).
(§4) In some cases, biphasic dose-ion flux response curves were evident and were fit to a two-phase Hill equation from which EC50 and Hill coefficients for the rising, agonist phase, and IC50 and Hill coefficients for the falling, self-inhibitory phase could be determined (Prism).

α6β3β4α5 nAChR [5] = target: T3, α6β3β4α5 nAChR; test: 86Rb+ efflux assay, SH-EP1 α6β3β4α5 cells; format: cell-based; conditions: SH-EP1 cells expressing α6β3β4α5-nAChR, FIG. 2
Procedure: ^86Rb^+-flux Assay. Cells were harvested at confluence from 100-mm plates by mild trypsinization (Irvine Scientific, Santa Ana, Calif.) before being resuspended in complete medium and evenly seeded at a density of one confluent 100-mm plate per 24-well plate (Falcon; ˜100-125 μg of total cell protein per well in a 500 μl volume). After cells had adhered (generally overnight, but no sooner than 4 hr later), medium was removed and replaced with 250 μl per well of complete medium supplemented with ˜300,000 cpm of ^86Rb^+ (NEN; counted at 40% efficiency using Cerenkov counting and the Packard TriCarb 1900 Liquid Scintillation Analyzer).
After at least 4 hr and typically overnight, ^86Rb^+ efflux was measured using the “flip-plate” technique (Lukas et al., 2002). […]
For each experiment, normalization and quality control measurements were made of total ^86Rb^+ efflux in samples containing a fully efficacious dose of 1 mM carbamylcholine and of non-specific ^86Rb^+ efflux measured using either samples containing 1 mM carbamylcholine plus 100 μM mecamylamine, which gave full block of agonist-induced or spontaneous, nAChR-mediated ion flux, or samples containing efflux buffer alone to assess any contributions due to spontaneous nAChR-mediated ion flux. […] Specific ^86Rb^+ efflux was determined in absolute terms and as a percentage of loaded ^86Rb^+. […]

α6α4β2β3 nAChR [6] = target: α6α4β2β3 nAChR (Homo sapiens, UniProt P17787+P43681+Q15825); test: 86Rb+ efflux assay, SH-EP1 α6α4β2β3 cells compared with α4β2 cells; format: cell-based
Procedure: as §1, §2, §3, §4

DA release = conditions: Bencherif, et al., 1998; cited from earlier work
α7 nAChR [7] = target: T2, α7 nAChR; conditions: Table 1; from Briggs et al, 1997; read-out: Ki α7 [3H]-MLA Binding; cited from earlier work
α4β2 nAChR [8] = target: T1, α4β2 nAChR; conditions: Table 1; from Briggs et al, 1997; read-out: Ki α4β2 [3H]-NIC Binding; cited from earlier work
[9] = Ki in competition with [3H]-EPI (rank order of potency)
[10] = SH-EP1 cells, Table 1, read-out: Ki α6β3β4α5 [3H]-EPI Binding
[11] = read-out: Ki α4β2 [3H]-NIC Binding
[12] = read-out: Ki α6β3β4α5 [3H]-EPI Binding
[13] = SH-EP1 α6β3β4α5 membranes, read-out: Ki in competition with [3H]-EPI (rank order of potency)

c1cncc(OC[C@@H]2CCN2)c1 [A-85380, 3-[2(S)-azetidinylmethoxy]pyridine]
Ki (α4β2 nAChR [1]): 3 nM
Ki (α7 nAChR [2]; Rat brain, Table 1): 1200 nM
Ki (α6β3β4α5 nAChR [3]; [9]): 7 to 9 nM and 6 nM
Ki (α6β3β4α5 nAChR [3]; [10]): 9 nM

CNC1(C)C2CCC(C2)C1(C)C (stereo not drawn) [mecamylamine]
Ki (α6β3β4α5 nAChR [3]; read-out: Ki in competition with [3H]-EPI (rank order of potency)): > 10000 nM

O=c1cccc2n1C[C@@H]1CNC[C@H]2C1 [(-)-CYT, cytisine]
Ki (α4β2 nAChR [1]; [11]): 1 nM
Ki (α7 nAChR [2]): 1160 nM
Ki (α6β3β4α5 nAChR [3]; [12]): 150 nM
Agonist efficacy/potency at α6α4β2β3 nAChR relative to α4β2-nAChR (α6α4β2β3 nAChR [4]): higher efficacy and agonist potency; also recorded: much greater efficacy

C[N+](C)(C)CCOC(N)=O [CAR, carbachol]
Ki (α6β3β4α5 nAChR [3]; [10]): 3500 nM
Ki (α6β3β4α5 nAChR [3]; [13]): 900 to 3500 nM and 500 to 2000 nM
86Rb+ efflux response (agonist) (α6β3β4α5 nAChR [5]): activate ^86Rb^+ efflux responses

CCN1C[C@]2(COC(=O)c3ccccc3N3C(=O)C[C@H](C)C3=O)CC[C@H](OC)[C@]34C5C[C@@H]6[C@@H](OC)C[C@@](O)(C5[C@H]6OC(C)=O)[C@](O)(C13)[C@@H](OC)C24 (stereo partly drawn) [NUD, nudikauline]
Ki (α6β3β4α5 nAChR [3]; [10]): 370 nM

CO[C@H]1CC=C2CCN3CCC4=C(CC(=O)OC4)[C@]23C1 [DHβE, dihydro-β-erythoidine]
Ki (α4β2 nAChR [1]; [11]): 26.4 nM
Ki (α7 nAChR [2]): 5000 nM
Ki (α6β3β4α5 nAChR [3]; [12]): > 10000 nM

CC(=O)O[C@H]1C[C@@H]2CC[C@@H]3[C@H](CC[C@@]4(C)[C@H]3C[C@H]([N+]3(C)CCCCC3)[C@@H]4OC(C)=O)[C@@]2(C)C[C@@H]1[N+]1(C)CCCCC1 [pancuronium]
Sensitivity of α6α4β2β3-nAChR to functional blockade relative to α4β2-nAChR (α6α4β2β3 nAChR [6]): lower sensitivity

Clc1ccc(C2CC3CCC2N3)cn1 (stereo not drawn) [EPI, epibatidine]
Ki (α6β3β4α5 nAChR [3]; Ki α6β3β4α5 [3H]-EPI Binding): 0.07 nM

C#Cc1cncc([C@@H]2CCCN2C)c1 [SIB-1508Y, altinicline]
Ki (α4β2 nAChR [1]): 200 nM
Ki (α6β3β4α5 nAChR [3]; [9]): 900 to 3500 nM and 500 to 2000 nM
Ki (α6β3β4α5 nAChR [3]; [10]): 950 nM

CN1[C@@H](CC(=O)c2ccccc2)CCC[C@H]1C[C@H](O)c1ccccc1 [(-)-LOB, lobeline]
Ki (α6β3β4α5 nAChR [3]; [10]): 7 nM
Ki (α6β3β4α5 nAChR [3]; [13]): 7 to 9 nM and 6 nM

α-bungarotoxin [α-Btx]
Ki (α4β2 nAChR [1]; [11]): > 10000 nM
Ki (α6β3β4α5 nAChR [3]; [12]): > 10000 nM

CNC(=O)OCC[N+](C)(C)C [MCC, methylcarbamylcholine]
Ki (α6β3β4α5 nAChR [3]; [10]): 970 nM

CCN1C[C@]2(COC(=O)c3ccccc3N3C(=O)C[C@H](C)C3=O)CC[C@H](OC)[C@@]34[C@@H]5C[C@H]6[C@H](OC)[C@@H]5[C@](O)(C[C@@H]6OC)[C@@](O)([C@@H](OC)[C@H]23)[C@@H]14 [MLA, methyllycaconitine]
Ki (α6β3β4α5 nAChR [3]; [10]): 160 nM
Ki (α6β3β4α5 nAChR [3]; [13]): 150 to 165 nM and 110 to 160 nM

c1cncc(C2CC3CCN2CC3)c1 (racemic) [TC-2429, (+/−)-2-(−3-pyridinyl)-1-azabicyclo[2.2.2]octane]
DA release (DA release): robust DA release
Ki (α6β3β4α5 nAChR [3]; [13]): 2 nM

COc1ccc(/C=C2\CCCN=C2c2cccnc2)c(OC)c1 [GTS-21, (2.4)-dimethoxybenzylidene anabaseine]
Ki (α7 nAChR [7]): 2000 nM
Ki (α4β2 nAChR [8]): 20 nM
Ki (α6β3β4α5 nAChR [3]; [9]): 900 to 3500 nM and 500 to 2000 nM
Ki (α6β3β4α5 nAChR [3]; [10]): 1400 nM

Cc1cc([C@@H]2CCCN2C)on1 [ABT-418, (S)-3-methyl-5-(1-methyl-2-pyrrolidinyl)isoxazole]
Ki (α4β2 nAChR [1]; Rat brain, Table 1, read-out: Ki α4β2 [3H]-NIC Binding): 39 nM
Ki (α6β3β4α5 nAChR [3]; [9]): 900 to 3500 nM and 500 to 2000 nM
Ki (α6β3β4α5 nAChR [3]; [10]): 850 nM

CN1CCCC1c1cccnc1 (single isomer, unassigned; (-)) [(-)-NIC, nicotine]
Ki (α6β3β4α5 nAChR [3]; [9]): 150 to 165 nM and 110 to 160 nM
Ki (α6β3β4α5 nAChR [3]; Ki α6β3β4α5 [3H]-EPI Binding): 160 nM
